Tests used:
[1] = mn = molality of the nth substance listed, in mol/kg; conditions: 101 kPa, Liquid, Vibrating tube method
[2] = refractive index (Na D-line) (dimensionless); conditions: 101.33 kPa, Liquid, Standard Abbe refractometry
[3] = 101.33 kPa, Liquid; for mass density: Vibrating tube method; for viscosity: Capillary tube (Ostwald / Ubbelohde) method

COS(=O)(=O)[O-].Cn1cc[n+](C)c1 [1,3-dimethylimidazolium methylsulfate] + C[S+](C)[O-]
mass density [kg/m3], [1]
Conditions	298.15 K	308.15 K	318.15 K	328.15 K
m1 = 0.0129	1095.83	1085.98	1075.96	1065.92
m1 = 0.0148	1095.95	1086.09	1076.07	1066.03
m1 = 0.0289	1096.8	1086.89	1076.88	1066.84
m1 = 0.0374	1097.18	1087.35	1077.34	1067.32
m1 = 0.0433	1097.5	1087.65	1077.66	1067.64
m1 = 0.0517	1097.95	1088.1	1078.12	1068.11
m1 = 0.0632	1098.58	1088.71	1078.72	1068.74
m1 = 0.0897	1100	1090.12	1080.15	1070.19
m1 = 0.1221	1101.67	1091.81	1081.86	1071.93
m1 = 0.1501	1103.05	1093.21	1083.28	1073.4
m1 = 0.1878	1104.92	1095.1	1085.22	1075.36
m1 = 0.2351	1107.24	1097.42	1087.6	1077.78
m1 = 0.2852	1109.64	1099.85	1090.06	1080.29
m1 = 0.3822	1114	1104.38	1094.63	1084.97
m1 = 0.5216	1120.2	1110.59	1100.91	1091.34
m1 = 0.8153	1132.05	1122.58	1113.1	1103.75

COS(=O)(=O)[O-].Cn1cc[n+](C)c1 [1,3-dimethylimidazolium methylsulfate] + CC#N
mass density [kg/m3], [1]
Conditions	298.15 K	308.15 K	318.15 K	328.15 K
m1 = 0.0154	778.02	767.2	756.08	745.07
m1 = 0.0262	778.92	768.15	757.02	746.08
m1 = 0.0367	779.78	769.04	757.94	746.91
m1 = 0.0442	780.39	769.64	758.56	747.53
m1 = 0.0552	781.25	770.6	759.47	748.49
m1 = 0.0697	782.39	771.79	760.65	749.74
m1 = 0.1092	785.54	775.06	763.89	753.13
m1 = 0.1516	788.85	778.45	767.29	756.65
m1 = 0.2159	793.88	783.51	772.5	761.83
m1 = 0.2981	799.99	789.92	779.03	768.5
m1 = 0.4347	809.98	799.82	788.98	778.24
m1 = 0.5442	817.8	807.73	797.07	786.34
m1 = 0.8609	839.07	828.64	818.22	808.33

CO [methanol]
Conditions	mass density, 298.15 K [kg/m3]	mass density, 308.15 K [kg/m3]	mass density, 318.15 K [kg/m3]	mass density, 328.15 K [kg/m3]	refractive index, 298.15 K	refractive index, 308.15 K	refractive index, 318.15 K	refractive index, 328.15 K	viscosity, 318.15 K [mPa·s]	viscosity, 328.15 K [mPa·s]
[2]	–	–	–	–	1.3272	1.3232	1.3185	1.3158	–	–
[3]	786.53	777.09	767.48	757.75	–	–	–	–	0.5962	0.4792

C[S+](C)[O-] [dimethyl sulfoxide]
Conditions	mass density, [3] [kg/m3]	refractive index, [2]	viscosity, [3] [mPa·s]
298.15 K	1095.27	1.4737	1.979
308.15 K	1085.18	1.4701	1.622
318.15 K	1075.24	1.4668	1.381
328.15 K	1065.16	1.462	1.207

O [water]
Conditions	mass density, 328.15 K [kg/m3]	refractive index, 298.15 K	refractive index, 308.15 K	refractive index, 318.15 K	refractive index, 328.15 K	viscosity, 298.15 K [mPa·s]	viscosity, 308.15 K [mPa·s]	viscosity, 318.15 K [mPa·s]	viscosity, 328.15 K [mPa·s]
[2]	–	1.3325	1.3313	1.3298	1.3282	–	–	–	–
[3]	985.62	–	–	–	–	0.8949	0.7207	0.5962	0.5042

From the NIST ThermoML archive (doi:10.1016/j.fluid.2010.01.002)
